Experimental data taken from publication PMC6156138, “Combination of a Latency-Reversing Agent With a Smac Mimetic Minimizes Secondary HIV-1 Infection in vitro” (Frontiers in Microbiology, 2018).

What was measured:
Type in all cases: cell-based
[1] = tested on: latent HIV-1-infected ACH-2 cells; experiment: HIV reactivation from latent cells: supernatant p24 antigen; details: for viral production (supernatant p24 antigen levels): day 2, single drug (Figure 1A)
Method: The reactivation of HIV-1 from latently infected cells was determined by the measurement of supernatant p24 antigen and intracellular HIV-1 RNA levels. ACH-2 cells or U1 cells (5 × 10^5 cells/mL) were placed in 96-well plates, and then the cells were incubated with different concentrations of drugs for 24 h to extract RNA and for 48 h to collect the supernatant. The increase in supernatant p24 antigen levels was measured using […] G1200 (Fujirebio, Tokyo, Japan). The total RNA was extracted using an RNeasy Mini Kit (Qiagen, Hilden, Germany), following the manufacturer’s protocols. The cDNA was synthesized using PrimeScript RT Master Mix (Takara Bio, Shiga, Japan), and quantitative real-time PCR analyses for the intracellular HIV-1 RNA were carried out with PowerUp^TM SYBR Green Master Mix (Applied Biosystems, Foster City, CA, United States). The oligonucleotide primers used were as follows: 5′-[…]-3′ (forward) and 5′-[…]-3′ (reverse) for HIV-RNA detection; 5′-[…]-3′ (forward) and 5′-[…]-3′ (reverse) for β-actin. The HIV-RNA expressions were normalized with that of β-actin, which was indicated as the relative quantity, and the increase in HIV-1 RNA levels in the presence of a drug was compared with that without a drug.
FIGURE 1 (A,B) The increase in viral production from ACH-2 cells (A) and U1 cells (B) was examined by supernatant p24 antigen levels on day 2. (C,D) Changes in the intracellular HIV-1 mRNA levels due to treatment with these drugs in ACH-2 cells (C) and U1 cells (D) after 24 h of incubation.
FIGURE 2 (A) Effect of birinapant when combined with TNF-α. The supernatant p24 levels with birinapant (1∼100 nM) in ACH-2 cell culture on day 2 are shown in white bars, and p24 values with birinapant when combined with TNF-α (10 ng/ml) are shown in black bars. (B) HIV-1 production from ACH-2 cells when reactivated by PEP005 (0.05∼50 nM) for 24 h. (C) Changes in the living cell numbers in the presence of drug(s) on days 1, 3, and 5.

[2] = tested on: ACH-2 cells; experiment: FACS analysis of active caspase-3 expression; details: for percentage of active caspase-3 cells: ACH-2 cells, 24 h
Method: Intracellular HIV-1 p24 levels and active form of caspase-3 expression were determined as previously described ([Hattori et al., 2009]; [Duro et al., 2010]; [Matsuda et al., 2015]). In brief, ACH-2 cells or U1 cells (2.5 × 10^5 cells/mL) were fixed with 1% paraformaldehyde/phosphate buffered saline (PBS) for 20 min and were permeabilized with Flow Cytometry Perm Buffer (TONBO biosciences, San Diego, CA, United States). After incubation on ice for 5 min, the cells were stained with anti-HIV-1 p24 (24-4)-FITC mAb (Santa Cruz Biotechnology, Dallas, TX, United States) and/or with Alexa Fluor 647-conjugated anti-active caspase-3 mAb (C92-605) (BD Pharmingen, San Diego, CA, United States) for 30 min on ice. Cells were then analyzed on a BD FACSVerse flow cytometer (BD Biosciences, Franklin Lakes, NJ, United States). The corrected data were analyzed with FlowJo software (Tree Star, San Carlos, CA, United States).
FIGURE 3 (A,B) ACH-2 (A) and U1 cells (B) were treated with birinapant (50 nM), PEP005 (5 nM), birinapant plus PEP005, TNF-α (10 ng/ml), and intracellular expression of caspase-3 was examined after 24 h of incubation. The percentage of active caspase-3 cells was determined by comparison with unstimulated cells. (C) ACH-2 cells after 24 h of PEP005 (0∼50 nM) treatment with or without birinapant (50 nM) were separately analyzed in p24^+ and p24^- populations for caspase-3 expression.
FIGURE 4 (A) ACH-2 cells were exposed to birinapant (50 nM), PEP005 (5 nM), birinapant plus PEP005, TNF-α (10 ng/ml), or birinapant plus TNF-α treatment and were cultured for 5 days, and data (FACS analysis) were collected at days 1, 3, and 5. (B) Expression of active caspase-3 in p24^+/^- populations is shown. (C) Changes in the supernatant p24 antigen levels in the presence of drug(s) on days 1, 3, and 5. […]

[3] = tested on: cIAP; experiment: Determination of cIAP expression (western blotting); details: ACH-2 cells, 24 h; birinapant 50 nM, PEP005 5 nM, TNF-α 10 ng/ml
Method: ACH-2 cells (1 × 10^6 cells/ml) were treated with different concentrations of the drug for 24 h, and the cells were washed twice with PBS. Cells were homogenized by CelLytic M Cell Lysis Reagent (Sigma-Aldrich, St. Louis, MO, United States) containing a protease inhibitor cocktail (Nacalai Tesque, Kyoto, Japan) and were incubated at room temperature (RT) for 15 min. The cells were then centrifuged at 13,000 rpm for 15 min, and the supernatant of the whole cell lysate was collected. The bicinchoninic acid (BCA) protein assay (Thermo Scientific, Rockford, IL, United States) was used to measure the actual protein amount in the treated and untreated cells. The protein extracts were separated through sodium dodecyl sulfate polyacrylamide gel electrophoresis (SDS-PAGE) and then were blotted onto a Trans Blot Turbo polyvinylidene difluoride (PVDF) membrane (Bio-Rad, Hercules, CA, United States). Protein bands were visualized using 3,3′,5,5′-tetramethylbenzidine (TMB) solution (Wako Pure Chemical). The sources of the antibodies were as follows: c-IAP1 (D5G9), c-IAP2 (58C7), and XIAP (3B6) were purchased from Cell Signaling Technology (Danvers, MA, United States); β-actin (C4) was purchased from Santa Cruz Biotechnology.
Supplementary file Data_Sheet_5.PDF: FIGURE S5 Western blotting (WB) analysis for IAP family proteins in ACH-2 cells. Cells were exposed to birinapant (50 nM) in the presence or absence of PEP005 (5 nM), with TNF-α (10 ng/ml) co-treatment for 24 h, and cell lysates were used for WB analysis. Click here for additional data file.

[4] = birinapant 50 nM, PEP005 5 nM, TNF-α 10 ng/ml

## CC[C@H](NC(=O)[C@H](C)NC)C(=O)N1C[C@@H](O)C[C@H]1Cc1c(-c2[nH]c3cc(F)ccc3c2C[C@@H]2C[C@H](O)CN2C(=O)[C@H](CC)NC(=O)[C@H](C)NC)[nH]c2cc(F)ccc12 [Birinapant]
[1]; ACH-2 cells reactivated by PEP005 (or TNF-α), simultaneously treated with birinapant 50 nM, 24 h
  decrease of supernatant p24 levels: ~40%
[1]; ACH-2 cells, birinapant 1∼100 nM alone, day 2 (Figure 2A)
  supernatant p24 antigen levels: failed to affect supernatant p24 antigen levels
[1]; ACH-2 cells
  viral production (supernatant p24 antigen levels): only had a minor effect on HIV-1 reactivation
[2]; [4]
  percentage of active caspase-3 cells: 2.96%
[3]
  cIAP expression (western blotting): decreased expression of cIAP

## C/C=C(/C)C(=O)O[C@H]1C(C)=C[C@]23C(=O)[C@@H](C=C(CO)[C@@H](O)[C@]12O)[C@H]1[C@@H](C[C@H]3C)C1(C)C [PEP005, ingenol-3-angelate]
[1]; ACH-2 cells, after 24 h, PEP005 5 nM and higher (Figure 2B)
  supernatant HIV-1 p24 levels: reactivated and increased the supernatant HIV-1 p24 levels
[1]; ACH-2 cells, day 2 (Figure 1A)
  increase of supernatant HIV-1 p24 levels compared with unstimulated ACH-2 cells: > 100 fold
[1]; ACH-2 cells
  viral production (supernatant p24 antigen levels): increased viral production
[2]; ACH-2, 24 h, p24 (+) cells, Birinapant (-), PEP005 50nM
  Active caspase-3: 13.0%
[2]; ACH-2, 24 h, p24 (-) cells, Birinapant (-), PEP005 50nM
  Active caspase-3: 44.7%
[2]; ACH-2, Day 5, p24 (+) cells, birinapant 50 nM, PEP005 5 nM, TNF-α 10 ng/ml
  Active caspase-3: ~20.7%
[2]; [4]
  percentage of active caspase-3 cells: 9.98%
[3]
  cIAP expression (western blotting): upregulation of cIAP-1 (and cIAP-2)
